“Also recorded” adds a separate entry of the source.
Experiments:
[1] = tested on: total BRAF mRNA; test: qRT-PCR of total BRAF mRNA in SK-Mel 7 cells; format: cell-based; settings: 750 nM, 48 hours, RT-PCR, normalized with GAPDH
Method: (§1) C918 and OCM1A cells were treated with 750 nM PNA (I-292-3 L2LP) for 48 hours. Mutant BRAF mRNA expression in cells was quantified using RT-PCT. Specifically, cells were treated and then lysed using TRIzol Reagent® (Invitrogen). Reverse transcription of 1 μg of RNA was done using the SuperScript III First-Strand Synthesis System (Invitrogen). Quantitative real-time PCR (qRT-PCR) assays were performed using the 7300 Real Time PCR System (Applied Biosystems). TaqMan gene expression assays, which include gene-specific probe primer sets (Applied Biosystems), were used to detect the indicated genes and glyceraldehyde-3-phosphate dehydrogenase (GAPDH)/hypoxanthine phosphoribosyltransferase (HPRT) mRNA. The relative expression of each gene was calculated by the ΔΔCT method. Cells wild-type for BRAF (C918) as well as mutant cell lines (OCM1A and SK-Mel 7) were treated for 48 hours with 750 nM I-292-3 L2LP NHAc. According to FIG. 5A, BRAF^V600E mRNA expression was quantified using RT-PCR. Relative Quantity (RQ) values were normalized with GAPDH loading control and set relative to the mutant BRAF mRNA expression in untreated OCM1A cells (ND). […] According to FIG. 5B, Both BRAF^V600E and total BRAF mRNA expression in SK-Mel 7 cells were quantified using RT-PCR. RQ values were normalized with GAPDH and set relative to untreated cells. […]

[2] = tested on: BRAF V600E mRNA; test: qRT-PCR of BRAF V600E mRNA in OCM1A cells; format: cell-based; settings: 750 nM, 48 hours, RT-PCR, normalized with GAPDH
Method: as §1

[3] = tested on: BRAF; test: BRAF expression by Western blot in OCM1A cells; format: cell-based
Method: (§2) PNA compounds targeting the BRAF V600E gene mutation were tested against melanoma cell lines that are either BRAF wild-type (C918) or BRAF V600E mutant (OCM1A and SK-MEL 7). C918 and OCM1A are uveal melanoma cell lines while SK-MEL 7 is a cutaneous melanoma cell line. […] Cells were treated with increasing doses of several PNA derivatives for 72 hours after which the cell viability was measured and calculated relative to the untreated cells. Cells were plated in 96-well plates and treated in triplicates with the indicated concentrations of PNA derivative. Viability was assessed after 72 hours of treatment using the Cell Counting Kit 8 (CCK8) from Dojindo Molecular Technologies according to the manufacturer's instructions.
(§3) Cells were treated for 24, 48 and 72-hour treatments with 750 nM PNA and lysed in radioimmunoprecipitation assay (RIPA) buffer supplemented with protease inhibitor cocktail tablets (Roche Diagnostics) and 1 mmol/L Na3VO4. Equal amounts of protein were loaded on 4% to 12% PAGE gels (Invitrogen). Polyvinylidene difluoride (PVDF) membranes were blocked with 5% nonfat dried milk and probed with p-MEK, MEK, p-ERK 1/2 (T202/Y204), ERK 1/2, cleaved PARP, α-tubulin (Cell Signaling Technology), BRAF (Santa Cruz Biotechnology), LC3 (Novus Biologicals) and BRAF V600E (Spring Bioscience).

[4] = tested on: BRAF V600E mRNA; test: qRT-PCR of BRAF V600E mRNA in SK-Mel 7 cells; format: cell-based; settings: 750 nM, 48 hours, RT-PCR, normalized with GAPDH
Method: as §1

[5] = tested on: total BRAF wild type protein; test: Western blot of total BRAF protein in C918 cells; format: cell-based; settings: 750 nM, over 72 hours
Method: as §3
(§4) FIGS. 3A-3C depict BRAF mutant and BRAF wild type protein expression in melanoma cells (C918 and OCM1A) treated with 750 nM of the PNA I-292-3 L2LP NHAc for 24, 48 or 72 hours. FIG. 3A depicts the measurement of mutant and total BRAF protein expression as measured by Western blotting in C918 and OCM1A cells. Tubulin expression was also measured as a loading control. […]
(§5) FIGS. 4A-4C depict BRAF mutant and BRAF wild type protein expression in melanoma cells (C918 and OCM1A) treated with 750 nM of the PNA I-292-9 L2 NHAc for 24, 48 or 72 hours. FIG. 4A depicts the measurement of mutant and total BRAF protein expression as measured by Western blotting in C918 and OCM1A cells. Tubulin expression was also measured as a loading control. […]

[6] = tested on: OCM1A cells; test: Cell viability assay (CCK8), BRAF V600E mutant uveal melanoma cells; settings: increasing doses, 72 hours
Method: (§6) PNA compounds targeting the BRAF V600E gene mutation were tested against melanoma cell lines that are either BRAF wild type (C918) or BRAF V600E mutant (OCM1A and SK-MEL 7). C918 and OCM1A are uveal melanoma cell lines while SK-MEL 7 is a cutaneous melanoma cell line. C918 was kindly provided by Robert Folberg (University of Illinois, Chicago, Ill.). OCM1A was from Dr. William Harbour (Washington University, St. Louis, Mo.). SK-MEL 7 was from Alan Houghton (Memorial Sloan-Kettering Cancer Center, New York, N.Y.). Cells were cultured in RPMI medium supplemented with 10% FBS, 100 units/mL penicillin, and […] streptomycin and maintained at 37° C. in 5% CO2.
as §2

[7] = Toxicity in xenograft mice by weight loss and activity; format: in vivo, Athymic mice; settings: OCM1A xenograft mice, 50 mg/kg doses, 28 day study
Method: Toxicity of the tested PNA derivative was evaluated by measuring weight loss of test animals.

[8] = tested on: SK-MEL 7 cells; test: Cell viability assay (CCK8), BRAF V600E mutant cutaneous melanoma cells; settings: increasing doses, 72 hours
Method: as §6, §2

[9] = tested on: BRAF V600E mutant protein; test: Western blot of BRAF V600E mutant protein in OCM1A cells; format: cell-based; settings: 750 nM, over 72 hours
Method: as §3, §4, §5

[10] = tested on: BRAF; test: BRAF expression by Western blot in SK MEL 7 cells; format: cell-based
Method: as §2, §3

[11] = tested on: OCM1A; test: Xenograft mouse trial, tumor size; format: in vivo, Athymic mice
Method: Athymic mice (3 per group) were inoculated with OCM1A. After 15 days, the size of the developing tumor was sufficient for further measurement and monitoring. The treatment group was given 50 mg/kg dosage of I-292-3 L2LP-NHAc on days 15, 17, 20 and 22. […] Moreover, one week following the last dose, the average tumor size of the treated group began to shrink by 25% over 4 days.

[12] = tested on: total BRAF wild type protein; test: Western blot of total BRAF protein in OCM1A cells; format: cell-based; settings: 750 nM, over 72 hours
Method: as §3, §4, §5

Compound | total BRAF mRNA expression in SK-Mel 7 cells [1] | BRAF V600E mRNA expression in OCM1A cells [2] | decrease in BRAF expression, OCM1A cells [3] [%] | BRAF V600E mRNA expression in SK-Mel 7 cells [4] | total BRAF wild type protein in C918 cells [5] | suppression of cell viability in OCM1A cells [6] | animal weight and activity (toxicity, words) [7] | suppression of cell viability in SK-MEL 7 cells [8] | BRAF V600E mutant protein expression in OCM1A cells [9] | decrease in BRAF expression, SK MEL 7 cells [10] [%] | tumor volume regression ([11]; OCM1A xenograft mice, 50 mg/kg IP doses (FIG. 6A legend)) [%] | average tumor size as percentage of the untreated control group ([11]; OCM1A xenograft, 50 mg/kg on days 15, 17, 20 and 22, day 28) [%] | shrinkage of average tumor size of the treated group ([11]; OCM1A xenograft, 50 mg/kg, over 4 days, one week following the last dose) [%] | total BRAF wild type protein in OCM1A cells [12]
CCCCCCCCCCCCCCCC(=O)NCCCC[C@H](NC(=O)[C@@H](CCCCN)NC(=O)[C@@H](CCCCN)NC(=O)[C@H](NC(=O)[C@@H](CCCCN)NC(=O)[C@@H](CCCNC(=N)N)NC(=O)[C@@H](CCCCN)NC(=O)[C@@H](CCCCN)NC(=O)[C@@H](CCCCN)NC(=O)[C@H]1CCCN1C(=O)[C@@H](CCCCN)NC(=O)CN(CCNC(=O)CN(CCNC(=O)CN(CCNC(=O)CN(CCNC(=O)CN(CCNC(=O)CN(CCNC(=O)CN(CCNC(=O)CN(CCNC(=O)CN(CCNC(=O)CN(CCNC(=O)CN(CCNC(=O)CN(CCNC(=O)CN(CCNC(=O)CN(CCNC(=O)CN(CCNC(=O)CN(CCNC(=O)CN(CCNC(=O)CN(CCNC(=O)[C@@H](CCCCN)NC(=O)[C@@H](CCCCN)NC(=O)[C@H](CCCCNC(=O)CCCCCCCCCCCCCCC)NC(C)=O)C(=O)Cn1ccc(N)nc1=O)C(=O)Cn1ccc(N)nc1=O)C(=O)Cn1cc(C)c(=O)[nH]c1=O)C(=O)Cn1ccc(N)nc1=O)C(=O)Cn1cnc2c(N)ncnc21)C(=O)Cn1cnc2c(N)ncnc21)C(=O)Cn1cnc2c(=O)[nH]c(N)nc21)C(=O)Cn1cnc2c(N)ncnc21)C(=O)Cn1cnc2c(=O)[nH]c(N)nc21)C(=O)Cn1cc(C)c(=O)[nH]c1=O)C(=O)Cn1cnc2c(N)ncnc21)C(=O)Cn1cnc2c(N)ncnc21)C(=O)Cn1cc(C)c(=O)[nH]c1=O)C(=O)Cn1cnc2c(N)ncnc21)C(=O)Cn1cnc2c(N)ncnc21)C(=O)Cn1cc(C)c(=O)[nH]c1=O)C(=O)Cn1cnc2c(N)ncnc21)C(=O)Cn1cc(C)c(=O)[nH]c1=O)C(C)C)C(N)=O [I-292-3 L2LP NHAc, AcNH-Lys(palmitoyl)-dLys-dLys-C CT CAAGAGTAATAATAT-dLys-dPro-dLys-dLys-dLysdArg-dLys-dVal-dLys-dLys-Lys(palmitoyl)-CONH2] | no observed decrease | significantly decreased | 40.3 | decreased significantly | no significant reduction | significant suppression of cell viability | no weight loss or changes in daily activity | significant suppression of cell viability | decreased expression | 62.4 | 50 | 35 | 25 | no significant reduction
AcNH-Lys(palmitoyl)-dLys-dLys-CCTCAAGAGTAATAATAT-dLys-dArg3-dGln-dArg2-dLys2-dArg-Gly-dTyr-dLys-dLys-Lys(palmitoyl)-CONH2 [I-292-9 L2 NHAc] |  |  |  |  | no significant reduction | significant suppression of cell viability |  | significant suppression of cell viability | decreased expression |  |  |  |  | slight decrease; also recorded: slight reduction

Source: patent US11518996B2, “Methods and compositions for treating cancer using peptide nucleic acid-based agents” (MEMORIAL SLOAN-KETTERING CANCER CENTER, priority 2013, dated 2022)
